Source: US10358463B2, “Immunomodulators” (BRISTOL-MYERS SQUIBB COMPANY, priority 2016, dated 2019)
Numbered stars: 1 amine (or outer) side, 2 acyl side, 3 side chain; on linkers, the order of the positions; unused ones are H or OH. Bridge positions count the residues as written; N and C are the ends. Square brackets hold non-standard residues; d marks the D form. Peptide text beside a SMILES is read from it. Trp(1-CH2CONHSO2Me) = CS(=O)(=O)NC(=O)Cn1cc(C[C@H](N)C(=O)O)c2ccccc21; X14 = C[C@H](C(=O)O)n1c(=O)n(C[C@H](N[*:1])C(=O)[*:2])c2ccccc21; X1 = O=C(O)Cn1c(C(=O)O)c(C[C@H](N[*:1])C(=O)[*:2])c2ccccc21; X17 = O=C([C@H](Cc1cn(Cc2nnn[nH]2)c2ccccc12)N[*:1])[*:2]; X18 = O=C(O)Cn1c(=O)n(C[C@H](N[*:1])C(=O)[*:2])c2ccccc21; Ala(4-isoquinolinyl) = N[C@@H](Cc1cncc2ccccc12)C(=O)O; X12 = O=C(O)Cc1nn(C[C@H](N[*:1])C(=O)[*:2])c2ccccc12; X13 = O=C(O)Cc1nc(C[C@H](N[*:1])C(=O)[*:2])c2ccccn12; X7 = O=C(O)Cc1nc(C[C@H](N[*:1])C(=O)[*:2])n2ccccc12; X16 = O=C([C@H](Cc1cccc2ccncc12)N[*:1])[*:2]; Hyp = O=C(O)[C@@H]1C[C@@H](O)CN1; NMeNle = CCCC[C@H](NC)C(=O)O; Pen = CC(C)(S)[C@H](N)C(=O)O; Pip = O=C(O)[C@@H]1CCCCN1; NMeA = CN[C@@H](C)C(=O)O; Dab = NCC[C@H](N)C(=O)O; Dap = NC[C@H](N)C(=O)O; Sar = CNCC(=O)O

Target: T1, PD-1-Ig binding to PD-L1-TVMV-His (PD-L1-His) (Homo sapiens, UniProt Q9NZQ7)
T1 construct: hPDL1 (19-239)-TVMV-His; TVMV protease cleavage site (C); made in house; host or cells: HEK293T cells
Assay: PD-1/PD-L1 Homogenous Time-Resolved Fluorescence (HTRF) binding assay
Conditions: PD-1-Ig (20 nM)/PD-L1-His (10 nM); range class
From the text: The ability of the macrocyclic peptides of the present disclosure to bind to PD-L1 was investigated using a PD-1/PD-L1 Homogenous Time-Resolved Fluorescence (HTRF) binding assay.
Homogenous Time-Resolved Fluorescence (HTRF) Assays of Binding of Soluble PD-1 to Soluble PD-L1. Soluble PD-1 and soluble PD-L1 refers to proteins with carboxyl-end truncations that remove the transmembrane-spanning regions and are fused to heterologous sequences, specifically the Fc portion of the human immunoglobuling G sequence (Ig) or the hexahistidine epitope tag (His). All binding studies were performed in an HTRF assay buffer consisting of dPBS supplemented with 0.1% (w/v) bovine serum albumin and 0.05% (v/v) Tween-20. For the PD-1-Ig/PD-L1-His binding assay, inhibitors were pre-incubated with PD-L1-His (10 nM final) for 15 m in 4 μl of assay buffer, followed by addition of PD-1-Ig (20 nM final) in 1 μl of assay buffer and further incubation for 15 m. PD-L1 fusion proteins from either human, cynomologous macaques, mouse, or other species were used. HTRF detection was achieved using europium crypate-labeled anti-Ig monoclonal antibody (1 nM final) and allophycocyanin (APC) labeled anti-His monoclonal antibody (20 nM final). Antibodies were diluted in HTRF detection buffer and 5 μl was dispensed on top of binding reaction. The reaction was allowed to equilibrate for 30 minutes and signal (665 nm/620 nm ratio) was obtained using an EnVision fluorometer. Additional binding assays were established between PD-1-Ig/PD-L2-His (20 and 5 nM, respectively), CD80-His/PD-L1-Ig (100 and 10 nM, respectively) and CD80-His/CTLA4-Ig (10 and 5 nM, respectively). Binding/competition studies between biotinylated Compound No. 71 and human PD-L1-His were performed as follows. Macrocyclic peptide inhibitors were pre-incubated with PD-L1-His (10 nM final) for 60 minutes in 4 μl of assay buffer followed by addition of biotinylated Compound No. 71 (0.5 nM final) in 1 μl of assay buffer. Binding was allowed to equilibrate for 30 minutes followed by addition of europium crylated labeled Streptavidin (2.5 pM final) and APC-labeled anti-His (20 nM final) in 5 μl of HTRF buffer. The reaction was allowed to equilibrate for 30 m and signal (665 nm/620 nm ratio) was obtained using an EnVision fluorometer.
Recombinant Proteins. Carboxyl-truncated human PD-1 (amino acids 25-167) with a C-terminal human Ig epitope tag [hPD-1 (25-167)-3S-IG] and human PD-L1 (amino acids 18-239) with a C-terminal His epitope tag [hPD-L1(19-239)-tobacco vein mottling virus protease cleavage site (TVMV)-His] were expressed in HEK293T cells and purified sequentially by recombinant Protein A affinity chromatography and size exclusion chromatography. Human PD-L2-His (Sino Biologicals), CD80-His (Sino Biologicals), CTLA4-Ig (RnD Systems) were all obtained through commercial sources.

T1 sequence (Q9NZQ7 with tags, fused parts or gaps): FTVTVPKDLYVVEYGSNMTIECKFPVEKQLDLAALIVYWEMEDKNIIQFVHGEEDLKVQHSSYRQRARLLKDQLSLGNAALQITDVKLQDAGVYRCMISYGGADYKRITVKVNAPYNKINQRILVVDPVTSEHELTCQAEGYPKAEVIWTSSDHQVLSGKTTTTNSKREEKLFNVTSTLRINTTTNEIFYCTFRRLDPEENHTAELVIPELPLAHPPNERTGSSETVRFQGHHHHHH

| SMILES | IC50 [nM] |
| --- | --- |
| CCCC[C@H]1C(=O)N(C)[C@@H](CCCC)C(=O)N[C@@H](CC(C)C)C(=O)N[C@H](C(N)=O)C(C)(C)SCC(=O)N[C@@H](Cc2ccc(O)cc2)C(=O)N2CCCC[C@H]2C(=O)N[C@@H](CC(=O)O)C(=O)N2CCC[C@H]2C(=O)N[C@@H](CN)C(=O)N[C@@H](CCC(=O)O)C(=O)N2C[C@H](O)C[C@H]2C(=O)N[C@@H](Cc2c[nH]c3ccccc23)C(=O)N[C@@H](CCN)C(=O)N[C@@H](Cc2cn(CC(=O)NS(C)(=O)=O)c3ccccc23)C(=O)N1C [Example 1011] ({CH2CO}-Y[Pip]DP[Dap]E[Hyp]W[Dab][Trp(1-CH2CONHSO2Me)][NMeNle][NMeNle]L[Pen]-NH2; thioether N-14) | 1 to 9.9 |
| CCCC[C@H]1C(=O)N(C)[C@@H](CCCC)C(=O)N[C@@H](CC(C)C)C(=O)N[C@H](C(=O)NCC(N)=O)CSCC(=O)N[C@@H](Cc2ccc(O)cc2)C(=O)N(C)[C@@H](C)C(=O)N[C@@H](CC(N)=O)C(=O)N2CCC[C@H]2C(=O)N[C@@H](CN)C(=O)N[C@@H](CC(C)C)C(=O)N2C[C@H](O)C[C@H]2C(=O)N[C@@H](Cc2c[nH]c3ccccc23)C(=O)N[C@@H](CCN)C(=O)N[C@@H](Cn2nc(CC(=O)O)c3ccccc32)C(=O)N1C [Example 1012] ({CH2CO}-Y[NMeA]NP[Dap]L[Hyp]W[Dab][X12][NMeNle][NMeNle]LCG-NH2; thioether N-14) | 10 to 99 |
| CCCC[C@H]1C(=O)N(C)[C@@H](CCCC)C(=O)N[C@@H](CC(C)C)C(=O)N[C@H](C(=O)NCC(N)=O)CSCC(=O)N[C@@H](Cc2ccc(O)cc2)C(=O)N(C)[C@@H](C)C(=O)N[C@@H](CC(N)=O)C(=O)N2CCC[C@H]2C(=O)N[C@@H](CN)C(=O)N[C@@H](CC(C)C)C(=O)N2C[C@H](O)C[C@H]2C(=O)N[C@@H](Cc2c[nH]c3ccccc23)C(=O)N[C@@H](CCN)C(=O)N[C@@H](Cn2c(=O)n(CC(=O)O)c3ccccc32)C(=O)N1C [Example 1015] ({CH2CO}-Y[NMeA]NP[Dap]L[Hyp]W[Dab][X18][NMeNle][NMeNle]LCG-NH2; thioether N-14) | 1 to 9.9 |
| CCCC[C@H]1C(=O)N(C)[C@@H](CCCC)C(=O)N[C@@H](CC(C)C)C(=O)N[C@H](C(=O)NCC(N)=O)CSCC(=O)N[C@@H](Cc2ccc(O)cc2)C(=O)N(C)[C@@H](C)C(=O)N[C@@H](CC(N)=O)C(=O)N2CCC[C@H]2C(=O)N[C@@H](CN)C(=O)N[C@@H](CC(C)C)C(=O)N2C[C@H](O)C[C@H]2C(=O)N[C@@H](Cc2c[nH]c3ccccc23)C(=O)N[C@@H](CCN)C(=O)N[C@@H](Cc2nc(CC(=O)O)c3ccccn23)C(=O)N1C [Example 1017] ({CH2CO}-Y[NMeA]NP[Dap]L[Hyp]W[Dab][X7][NMeNle][NMeNle]LCG-NH2; thioether N-14) | 1 to 9.9 |
| CCCC[C@H]1C(=O)N(C)[C@@H](CCCC)C(=O)N[C@@H](CC(C)C)C(=O)N[C@H](C(N)=O)CSCC(=O)N[C@@H](Cc2ccc(O)cc2)C(=O)N(C)[C@@H](C)C(=O)N[C@@H](CC(N)=O)C(=O)N(C)CC(=O)N[C@@H](CN)C(=O)N[C@@H](CC(C)C)C(=O)N2C[C@H](O)C[C@H]2C(=O)N[C@@H](Cc2c[nH]c3ccccc23)C(=O)N[C@@H](CCN)C(=O)N[C@@H](Cc2c(C(=O)O)n(CC(=O)O)c3ccccc23)C(=O)N1C [Example 1018] ({CH2CO}-Y[NMeA]N[Sar][Dap]L[Hyp]W[Dab][X1][NMeNle][NMeNle]LC-NH2; thioether N-14) | 10 to 99 |
| CCCC[C@H]1C(=O)N(C)[C@@H](CCCC)C(=O)N[C@@H](CC(C)C)C(=O)N[C@H](C(=O)NCC(N)=O)CSCC(=O)N[C@@H](Cc2ccc(O)cc2)C(=O)N(C)[C@@H](C)C(=O)N[C@@H](CC(N)=O)C(=O)N2CCC[C@H]2C(=O)N[C@@H](CN)C(=O)N[C@@H](CC(C)C)C(=O)N2C[C@H](O)C[C@H]2C(=O)N[C@@H](Cc2c[nH]c3ccccc23)C(=O)N[C@@H](CCN)C(=O)N[C@@H](Cc2cn(Cc3nnn[nH]3)c3ccccc23)C(=O)N1C [Example 1020] ({CH2CO}-Y[NMeA]NP[Dap]L[Hyp]W[Dab][X17][NMeNle][NMeNle]LCG-NH2; thioether N-14) | > 1000 |

Second part, the molecule after the results:

| IC50 [nM] | SMILES |
| --- | --- |
| 10 to 99 | CCCC[C@H]1C(=O)N(C)[C@@H](CCCC)C(=O)N[C@@H](CC(C)C)C(=O)N[C@H](C(=O)NCC(N)=O)CSCC(=O)N[C@@H](Cc2ccc(O)cc2)C(=O)N(C)[C@@H](C)C(=O)N[C@@H](CC(N)=O)C(=O)N2CCC[C@H]2C(=O)N[C@@H](CN)C(=O)N[C@@H](CC(C)C)C(=O)N2C[C@H](O)C[C@H]2C(=O)N[C@@H](Cc2c[nH]c3ccccc23)C(=O)N[C@@H](CCN)C(=O)N[C@@H](Cc2c(C(=O)O)n(CC(=O)O)c3ccccc23)C(=O)N1C [Example 1013] ({CH2CO}-Y[NMeA]NP[Dap]L[Hyp]W[Dab][X1][NMeNle][NMeNle]LCG-NH2; thioether N-14) |
| 1 to 9.9 | CCCC[C@H]1C(=O)N(C)[C@@H](CCCC)C(=O)N[C@@H](CC(C)C)C(=O)N[C@H](C(=O)NCC(N)=O)CSCC(=O)N[C@@H](Cc2ccc(O)cc2)C(=O)N(C)[C@@H](C)C(=O)N[C@@H](CC(N)=O)C(=O)N2CCC[C@H]2C(=O)N[C@@H](CN)C(=O)N[C@@H](CC(C)C)C(=O)N2C[C@H](O)C[C@H]2C(=O)N[C@@H](Cc2c[nH]c3ccccc23)C(=O)N[C@@H](CCN)C(=O)N[C@@H](Cn2c(=O)n([C@H](C)C(=O)O)c3ccccc32)C(=O)N1C [Example 1014] ({CH2CO}-Y[NMeA]NP[Dap]L[Hyp]W[Dab][X14][NMeNle][NMeNle]LCG-NH2; thioether N-14) |
| 1 to 9.9 | CCCC[C@H]1C(=O)N(C)[C@@H](CCCC)C(=O)N[C@@H](CC(C)C)C(=O)N[C@H](C(=O)NCC(N)=O)CSCC(=O)N[C@@H](Cc2ccc(O)cc2)C(=O)N(C)[C@@H](C)C(=O)N[C@@H](CC(N)=O)C(=O)N2CCC[C@H]2C(=O)N[C@@H](CN)C(=O)N[C@@H](CC(C)C)C(=O)N2C[C@H](O)C[C@H]2C(=O)N[C@@H](Cc2c[nH]c3ccccc23)C(=O)N[C@@H](CCN)C(=O)N[C@@H](Cc2nc(CC(=O)O)n3ccccc23)C(=O)N1C [Example 1016] ({CH2CO}-Y[NMeA]NP[Dap]L[Hyp]W[Dab][X13][NMeNle][NMeNle]LCG-NH2; thioether N-14) |
| 1 to 9.9 | CCCC[C@H]1C(=O)N(C)[C@@H](CCCC)C(=O)N[C@@H](CC(C)C)C(=O)N[C@H](C(=O)NCC(N)=O)CSCC(=O)N[C@@H](Cc2ccc(O)cc2)C(=O)N(C)[C@@H](C)C(=O)N[C@@H](CC(=O)O)C(=O)N2CCC[C@H]2C(=O)N[C@@H](Cc2cnc[nH]2)C(=O)N[C@@H](CCCCN)C(=O)N2C[C@H](O)C[C@H]2C(=O)N[C@@H](Cc2c[nH]c3ccccc23)C(=O)N[C@@H](CCCCN)C(=O)N[C@@H](Cc2cn(CC(=O)NS(C)(=O)=O)c3ccccc23)C(=O)N1C [Example 1019] ({CH2CO}-Y[NMeA]DPHK[Hyp]WK[Trp(1-CH2CONHSO2Me)][NMeNle][NMeNle]LCG-NH2; thioether N-14) |
| 10 to 99 | CCCC[C@H]1C(=O)N(C)[C@@H](CCCC)C(=O)N[C@@H](CCCNC(=N)N)C(=O)N[C@H](C(=O)NCC(N)=O)CSCC(=O)N[C@@H](Cc2ccc(O)cc2)C(=O)N(C)[C@@H](C)C(=O)N[C@@H](CC(N)=O)C(=O)N2CCC[C@H]2C(=O)N[C@@H](Cc2cnc[nH]2)C(=O)N[C@@H](CC(C)C)C(=O)N2C[C@H](O)C[C@H]2C(=O)N[C@@H](Cc2c[nH]c3ccccc23)C(=O)N[C@@H](CO)C(=O)N[C@@H](Cc2cncc3ccccc23)C(=O)N1C [Example 1254] ({CH2CO}-Y[NMeA]NPHL[Hyp]WS[Ala(4-isoquinolinyl)][NMeNle][NMeNle]RCG-NH2; thioether N-14) |
| 10 to 99 | CCCC[C@H]1C(=O)N(C)[C@@H](CCCC)C(=O)N[C@@H](C)C(=O)N[C@H](C(=O)NCC(N)=O)CSCC(=O)N[C@@H](Cc2ccc(O)cc2)C(=O)N(C)[C@@H](C)C(=O)N[C@@H](CC(N)=O)C(=O)N2CCC[C@H]2C(=O)N[C@@H](Cc2cnc[nH]2)C(=O)N[C@@H](CCC(N)=O)C(=O)N2C[C@H](O)C[C@H]2C(=O)N[C@@H](Cc2c[nH]c3ccccc23)C(=O)N[C@@H](CO)C(=O)N[C@@H](Cc2cccc3ccncc23)C(=O)N1C [Example 1271] ({CH2CO}-Y[NMeA]NPHQ[Hyp]WS[X16][NMeNle][NMeNle]ACG-NH2; thioether N-14) |
